Source: patent US20170037028A1 (BAYER PHARMA AKTIENGESELLSCHAFT, priority 2013, published 2017)

Molecular target: T1, GLUT1 (Homo sapiens, UniProt P11166)
T1 sequence (P11166 1-492): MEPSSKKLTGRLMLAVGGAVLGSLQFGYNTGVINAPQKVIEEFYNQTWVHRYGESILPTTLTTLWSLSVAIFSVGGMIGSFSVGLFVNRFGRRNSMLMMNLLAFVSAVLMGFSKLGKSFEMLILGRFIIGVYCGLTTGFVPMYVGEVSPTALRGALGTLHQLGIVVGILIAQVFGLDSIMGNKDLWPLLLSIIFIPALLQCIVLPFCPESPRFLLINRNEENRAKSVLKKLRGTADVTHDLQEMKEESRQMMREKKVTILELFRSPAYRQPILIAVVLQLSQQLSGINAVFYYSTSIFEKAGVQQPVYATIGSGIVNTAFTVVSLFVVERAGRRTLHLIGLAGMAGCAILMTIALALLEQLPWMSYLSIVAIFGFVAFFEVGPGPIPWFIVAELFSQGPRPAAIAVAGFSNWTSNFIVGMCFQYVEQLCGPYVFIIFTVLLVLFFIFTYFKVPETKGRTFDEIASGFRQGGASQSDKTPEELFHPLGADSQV
Assay: Indirect measurement of GLUT1 activity by quantification of intracellular ATP levels (glucose induced ATP increase)
Format: cell-based
Design: endogenous in cells; host or cells: DLD1 or CHO-K1
Settings: read-out: IC50 regarding glucose induced ATP increase (GLUT1 inhibition)
In short: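 Intracellular ATP was measured by CellTiter-Glo luminescence as an indirect readout of transport: glucose-driven for GLUT1, fructose-driven for GLUT2. DLD1 or CHO-K1 cells were used alongside an oxidative phosphorylation inhibitor. Beforehand, cells were held overnight in glucose-free 1% FCS medium to deplete ATP.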

SMILES | IC50 [nM]
Cc1nn(Cc2ccc(C(=O)NCCN3CCOCC3)cn2)c(C)c1NC(=O)c1cc(C(F)(F)F)nc2ccc(Br)cc12 [Example 1191] | 335
Cc1nn(Cc2ccc(C(=O)N3CCN(CCO)CC3)cc2)c(C)c1NC(=O)c1cc(C(F)(F)F)nc2ccc(Br)cc12 [Example 1192] | 339
Cc1nn(Cc2ccc(C(=O)NCC3CCOCC3)cc2)c(C)c1NC(=O)c1cc(C(F)(F)F)nc2ccc(Br)cc12 [Example 1193] | 343
Cc1c(NC(=O)c2cc(C(F)(F)F)nc3ccc(Br)cc23)c(C(F)(F)F)nn1Cc1ccc(C(=O)N(C)C)cn1 [Example 1194] | 363
Cc1nn(Cc2ccc(F)cc2)c(C(N)=O)c1NC(=O)c1cc(C(F)(F)F)nc2ccc(Br)cc12 [Example 1197] | 385
Cc1nn(Cc2ccc(C#N)cc2)c(C)c1NC(=O)c1cc(C(F)(F)F)nc2ccc(-c3c(C)noc3C)cc12 [Example 1198] | 390
Cc1c(NC(=O)c2cc(C(F)(F)F)nc3ccc(Br)cc23)c(C(F)(F)F)nn1Cc1ccc(C(=O)N2CCOCC2)cn1 [Example 1200] | 408
Cc1nn(CC2CCN(C(=O)OC(C)(C)C)CC2)c(C)c1NC(=O)c1cc(C(F)(F)F)nc2ccc(Br)cc12 [Example 1201] | 428
COc1cc(C(=O)Nc2c(C)nn(CCc3cccc(F)c3)c2C)c2ccccc2n1 [Example 1202] | 430
CCN(CC)C(=O)c1ccc(Cn2nc(C)c(NC(=O)c3cc(C(F)(F)F)nc4ccc(Br)cc34)c2C)cc1 [Example 1203] | 433
Cc1nn(Cc2ccc(C(=O)NCCC(C)(C)O)cc2)c(C)c1NC(=O)c1cc(C(F)(F)F)nc2ccc(Br)cc12 [Example 1204] | 436
Cc1nn(CC2CNC(=O)O2)c(C)c1NC(=O)c1cc(C(F)(F)F)nc2ccc(Br)cc12 (stereo not drawn) [Example 1206] | 451
Cc1nn(Cc2ccc(C(N)=O)cn2)c(C)c1NC(=O)c1cc(C(N)=O)nc2ccc(F)cc12 [Example 1207] | 477
Cc1nn(CC2COc3ccccc3O2)c(C)c1NC(=O)c1cc(C(F)(F)F)nc2ccc(Br)cc12 (stereo not drawn) [Example 1208] | 481
Cc1nn(Cc2ccc(C(=O)NCc3cccc(O)c3)cc2)c(C)c1NC(=O)c1cc(C(F)(F)F)nc2ccc(Br)cc12 [Example 1209] | 502
Cc1ccc(CCNC(=O)c2ccc(Cn3nc(C)c(NC(=O)c4cc(C(F)(F)F)nc5ccc(Br)cc45)c3C)cc2)cc1 [Example 1210] | 572
Cc1nn(Cc2ccc(C(=O)NCCC(C)O)cc2)c(C)c1NC(=O)c1cc(C(F)(F)F)nc2ccc(Br)cc12 (stereo not drawn) [Example 1211] | 581
Cc1nn(Cc2ccc(C(=O)N3CCN(C)CC3)cc2)c(C)c1NC(=O)c1cc(C(F)(F)F)nc2ccc(Br)cc12 [Example 1212] | 598
CC(=O)N1CCC(Cn2nc(C)c(NC(=O)c3cc(C(N)=O)nc4ccccc34)c2C)CC1 [Example 1213] | 614
Cc1c(NC(=O)c2cc(C(N)=O)nc3ccccc23)c(C(=O)N(C)C)nn1Cc1ccc(F)cc1 [Example 1214] | 622
Cc1nn(Cc2ccc(C(=O)N[C@H]3CCCC[C@@H]3O)cc2)c(C)c1NC(=O)c1cc(C(F)(F)F)nc2ccc(Br)cc12 [Example 1215] | 649

SMILES | IC50 [nM]
Cc1nn(Cc2ccc(C(=O)NCCC3CCCN3C)cc2)c(C)c1NC(=O)c1cc(C(F)(F)F)nc2ccc(Br)cc12 (stereo not drawn) [Example 1216] | 673
Cc1nn(Cc2ccc(C(=O)N3CCC(O)CC3)cc2)c(C)c1NC(=O)c1cc(C(F)(F)F)nc2ccc(Br)cc12 [Example 1217] | 676
Cc1nn(CCN2CCOCC2)c(C)c1NC(=O)c1cc(C(F)(F)F)nc2ccc(Br)cc12 [Example 1218] | 694
Cc1nn(Cc2ccc(F)cc2)c(C(=O)NCCO)c1NC(=O)c1cc(C(F)(F)F)nc2ccc(Br)cc12 [Example 1219] | 708
Cc1nn(CCN2CCCCC2)c(C)c1NC(=O)c1cc(C(F)(F)F)nc2ccc(Br)cc12 [Example 1220] | 723
Cc1nn(Cc2ccc(C(=O)N(C)C)cn2)c(C)c1NC(=O)c1cc(C(F)(F)F)nc2ccc(Br)cc12 [Example 1221] | 749
Cc1nn(CC2CCNCC2)c(C)c1NC(=O)c1cc(C(F)(F)F)nc2ccc(Br)cc12 [Example 1222] | 883
Cc1nn(Cc2ccc(C(=O)NCC(N)=O)cc2)c(C)c1NC(=O)c1cc(C(F)(F)F)nc2ccc(Br)cc12 [Example 1223] | 891
Cc1nn(Cc2ccc(C(=O)N(C)CCN(C)C)cc2)c(C)c1NC(=O)c1cc(C(F)(F)F)nc2ccc(Br)cc12 [Example 1224] | 912
CCOC(=O)c1nn(Cc2ccc(F)cc2)c(C)c1NC(=O)c1cc(C(F)(F)F)nc2ccc(Br)cc12 [Example 1225] | 914
Cc1ccc2nc(C)cc(C(=O)Nc3c(C)nn(C/C=C/c4ccccc4)c3C)c2c1 [Example 1226] | 924
CCCCCN(CCO)C(=O)c1ccc(Cn2nc(C)c(NC(=O)c3cc(C(F)(F)F)nc4ccc(Br)cc34)c2C)cc1 [Example 1228] | 962
COc1ccc(CNC(=O)c2ccc(Cn3nc(C)c(NC(=O)c4cc(C(F)(F)F)nc5ccc(Br)cc45)c3C)cc2)cc1 [Example 1229] | 999
Cc1nn(Cc2ccc(C(=O)NC(CO)CO)cn2)c(C)c1NC(=O)c1cc(C(F)(F)F)nc2ccc(Br)cc12 [Example 1230] | 1000
CNC(=O)c1nn(Cc2ccc(F)cc2)c(C)c1NC(=O)c1cc(C(N)=O)nc2ccccc12 [Example 1231] | 1040
COc1ccccc1Cn1nc(C)c(NC(=O)c2cc(C)nc3ccc(C)cc23)c1C [Example 1232] | 1050
Cc1cc(C)n(CCn2nc(C)c(NC(=O)c3cc(C(F)(F)F)nc4ccc(Br)cc34)c2C)n1 [Example 1233] | 1110
Cc1nn(Cc2ccc(C(=O)N3CCOCC3)cn2)c(C)c1NC(=O)c1cc(C(F)(F)F)nc2ccc(Br)cc12 [Example 1234] | 1180
Cc1c(NC(=O)c2cc(C(F)(F)F)nc3ccc(Br)cc23)c(C(=O)NCCO)nn1Cc1ccc(F)cc1 [Example 1235] | 1280
Cc1ccc2nc(C)cc(C(=O)Nc3c(C)nn(Cc4cccc(F)c4)c3C)c2c1 [Example 1236] | 1290
Cc1cc(C(=O)Nc2c(C)nn(Cc3ccc(F)cc3)c2C)c2cc(C#N)ccc2n1 [Example 1237] | 1320

SMILES | IC50 [nM]
Cc1nn(Cc2cc(F)ccc2F)c(C)c1NC(=O)c1cc(C(F)(F)F)nc2ccc(Br)cc12 [Example 1238] | 1370
Cc1nn(Cc2ccc(C(=O)NCC3(CO)COC3)cn2)c(C)c1NC(=O)c1cc(C(F)(F)F)nc2ccc(Br)cc12 [Example 1239] | 1470
Cc1nn(Cc2ccc(CC(=O)NCCN3CCOCC3)cc2)c(C)c1NC(=O)c1cc(C(F)(F)F)nc2ccc(Br)cc12 [Example 1240] | 1500
Cc1nn(CC2CCNCC2)c(C)c1NC(=O)c1cc(C(N)=O)nc2ccccc12 [Example 1241] | 1530
Cc1nn(Cc2ccc(F)cc2)c(C)c1NC(=O)c1cc(C(F)(F)F)nc2ccc(NC(=O)C(N)=O)cc12 [Example 1242] | 1560
Cc1nn(Cc2ccc(C(F)(F)F)cc2)c(C)c1NC(=O)c1cc(C(F)(F)F)nc2c(Cl)cc(Cl)cc12 [Example 1243] | 1590
Cc1nn(Cc2cc(F)cc(F)c2)c(C)c1NC(=O)c1cc(C(F)(F)F)nc2c(Cl)cc(Cl)cc12 [Example 1244] | 1590
COc1cc(C(=O)Nc2c(C)nn(Cc3ccc(F)cc3)c2C(=O)N(C)C)c2ccccc2n1 [Example 1245] | 1600
Cc1nn(Cc2ccc(C(=O)NCCO)cn2)c(C)c1NC(=O)c1cc(C(N)=O)nc2ccc(F)cc12 [Example 1246] | 1660
CNC(=O)N1CCC(Cn2nc(C)c(NC(=O)c3cc(C(N)=O)nc4ccccc34)c2C)CC1 [Example 1247] | 1670
COc1cc(C(=O)Nc2c(C)nn(Cc3ncccc3C)c2C)c2ccccc2n1 [Example 1248] | 1670
Cc1nn(Cc2ccc(F)cc2)c(C)c1NC(=O)c1c2c(nc3ccccc13)CCC2 [Example 1249] | 1670
Cc1nn(Cc2ccc(F)cc2)c(C(=O)N(C)C)c1NC(=O)c1cc(C(N)=O)nc2ccccc12 [Example 1250] | 1670
Cc1nn(Cc2ccc(C(=O)NCC3CCCCC3)cc2)c(C)c1NC(=O)c1cc(C(F)(F)F)nc2ccc(Br)cc12 [Example 1251] | 1870
Cc1cnc2ccccc2c1C(=O)Nc1c(C)nn(Cc2ccc(F)cc2)c1C [Example 1252] | 1870
CNC(=O)c1nn(Cc2ccc(F)cc2)c(C)c1NC(=O)c1cc(OC)nc2ccccc12 [Example 1253] | 1970
Cc1nn(Cc2ccc(CC(=O)NCCN(C)C)cc2)c(C)c1NC(=O)c1cc(C(F)(F)F)nc2ccc(Br)cc12 [Example 1254] | 1980
CCOC(=O)c1c(NC(=O)c2cc(C(F)(F)F)nc3ccc(Br)cc23)c(C)nn1Cc1ccc(F)cc1 [Example 1255] | 2010
Cc1nn(Cc2cc(F)cc(F)c2)c(C)c1NC(=O)c1cc(C(F)(F)F)nc2ccc(Br)cc12 [Example 1256] | 2040
Cc1nn(Cc2ccc(F)cc2)c(C)c1NC(=O)c1cc(C(F)(F)F)nc2ccc(NS(C)(=O)=O)cc12 [Example 1257] | 2050
CNC(=O)c1c(NC(=O)c2cc(C(N)=O)nc3ccccc23)c(C)nn1Cc1ccc(F)cc1 [Example 1258] | 2060
